The values below come from patent US10493077B2, “Fused imidazo-piperidine JAK inhibitor compound” (THERAVANCE BIOPHARMA R&D IP, LLC, priority 2017, dated 2019).

Structures are written as SMILES.

One assay concerns the target T1, EPHB6 (Homo sapiens, UniProt O15197).
T1 construct: made in house; host or cells: T7 phage in E. coli (BL21-derived) or HEK-293
Briefly: Kinome screen, EPHB6. In kind it is binding. To be noted: screened at 1 μM. Here is the method:
(§1) Kinase-tagged T7 phage strains were grown in parallel in 24-well blocks in an E. coli host derived from the BL21 strain. E. coli were grown to log-phase and infected with T7 phage from a frozen stock (multiplicity of infection=0.4) and incubated with shaking at 32° C. until lysis (90-150 minutes). The lysates were centrifuged (6,000×g) and filtered (0.2 μm) to remove cell debris. The remaining kinases were produced in HEK-293 cells and subsequently tagged with DNA for qPCR detection.
(§2) Streptavidin-coated magnetic beads were treated with biotinylated small molecule ligands for 30 minutes at room temperature to generate affinity resins for kinase assays. The liganded beads were blocked with excess biotin and washed with blocking buffer (SeaBlock (Pierce), 1% BSA, 0.05% Tween 20, 1 mM DTT) to remove unbound ligand and to reduce non-specific phage binding. […] Test compounds were prepared as 40× stocks in 100% DMSO and directly diluted into the assay. All reactions were performed in polypropylene 384-well plates in a final volume of 0.04 ml. […] The beads were then re-suspended in elution buffer (1×PBS, 0.05% Tween 20, 0.5 μM non-biotinylated affinity ligand) and incubated at room temperature with shaking for 30 minutes. The kinase concentration in the eluates was measured by qPCR.

In assay [1] the test system is IL-2 stimulated pSTAT5 in CD4+ T cells. In words: Cellular JAK potency assay: inhibition of IL-2 stimulated pSTAT5 in CD4+ T cells. In kind it is cell-based. Particulars: 0.5 h; CD4+ T cells in human PBMCs, 30 min stimulation; read-out: pIC50, inhibition of IL-2 stimulated pSTAT5 (converted). The procedure: The potency of the test compound for inhibition of interleukin-2 (IL-2)/anti-CD3 stimulated STAT5 phosphorylation was measured in CD4-positive (CD4+) T cells in human peripheral blood mononuclear cells (PBMCs) isolated from human whole blood (Stanford Blood Center) using flow cytometry. Because IL-2 signals through JAK, this assay provides a measure of JAK cellular potency.
CD4+ T cells were identified using a […] (PE) conjugated anti-CD4 antibody (Clone RPA-T4, BD Biosciences), while an Alexa Fluor 647 conjugated anti-pSTAT5 antibody (pY694, Clone 47, BD Biosciences) was used to detect STAT5 phosphorylation. […]
(2) After cytokine stimulation, cells were fixed with pre warmed fix solution (200 μL; BD Biosciences) for 10 min at 37° C., 5% CO2, washed twice with DPBS buffer (1 mL, Life Technologies), and resuspended in ice cold Perm Buffer III (1000 μL, BD Biosciences) for 30 min at 4° C. […] After incubation, cells were washed twice in FACS buffer before being analyzed using a LSRII flow cytometer (BD Biosciences). To determine the inhibitory potency of the test compound in response to IL-2/anti-CD3, the median fluorescent intensity (MFI) of pSTAT5 was measured in CD4+ T cells. IC50 values were determined from analysis of the inhibition curves of MFI vs compound concentration. Data are expressed as pIC50 (negative decadic logarithm IC50) values.

The next assay concerns the target T2, GSK3B (Homo sapiens, UniProt P49841).
T2 construct: made in house; host or cells: T7 phage in E. coli (BL21-derived) or HEK-293
Briefly: Kinome screen, GSK3B. In kind it is binding. To be noted: screened at 1 μM. The procedure: as §1, §2

The next assay deals with T3, CDK7 (Homo sapiens, UniProt P50613).
T3 construct: made in house; host or cells: T7 phage in E. coli (BL21-derived) or HEK-293
Briefly: Kinome screen, CDK7. In kind it is binding. To be noted: screened at 1 μM. Here is the method: as §1, §2

Assay [2] concerns IFNγ stimulated STAT1 phosphorylation in CD14+ monocytes. In words: Cellular JAK potency assay: inhibition of IFNγ-induced pSTAT1 in CD14+ monocytes. In kind it is cell-based. To be noted: Homo sapiens, Monocyte, read-out: pIC50, inhibition of IFNγ-induced pSTAT1 (converted). The procedure: The potency of the test compound for inhibition of interferon gamma (IFNγ) stimulated STAT1 phosphorylation was measured in CD14-positive (CD14+) monocytes derived from human whole blood (Stanford Blood Center) using flow cytometry. Because IFNγ signals through JAK, this assay provides a measure of JAK cellular potency.
Monocytes were identified using a fluorescein isothiocyanate (FITC) conjugated anti-CD14 antibody (Clone RM052, Beckman Coulter), and an Alexa Fluor 647 conjugated anti-pSTAT1 antibody (pY701, Clone 4a, BD Biosciences) was used to detect STAT1 phosphorylation.
Human peripheral blood mononuclear cells (PBMC) were isolated from human whole blood of healthy donors using a ficoll gradient. […] Cells were washed twice with FACS buffer, and then resuspended in 1:10 anti-pSTAT1 Alexa Fluor 647:FACS buffer (100 μL) for 30 min at RT in the dark, washed twice in FACS buffer, and analyzed using a LSRII flow cytometer (BD Biosciences).
To determine the inhibitory potency of the test compound, the median fluorescent intensity (MFI) of pSTAT1 was measured in CD14+ monocytes. IC50 values were determined from analysis of the inhibition curves of MFI vs compound concentration. Data are expressed as pIC50 (negative decadic logarithm IC50) values.

T3 sequence (P50613 whole entry): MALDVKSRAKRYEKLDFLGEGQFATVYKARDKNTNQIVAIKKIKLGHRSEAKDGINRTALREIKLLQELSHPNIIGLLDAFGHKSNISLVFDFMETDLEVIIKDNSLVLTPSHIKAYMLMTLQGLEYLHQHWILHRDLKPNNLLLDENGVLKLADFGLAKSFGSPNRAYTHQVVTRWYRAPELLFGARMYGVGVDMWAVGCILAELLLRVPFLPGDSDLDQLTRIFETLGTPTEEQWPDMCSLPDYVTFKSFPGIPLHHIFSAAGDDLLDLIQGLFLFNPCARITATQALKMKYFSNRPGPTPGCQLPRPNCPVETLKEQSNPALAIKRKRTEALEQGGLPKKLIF
T2 sequence (P49841 whole entry): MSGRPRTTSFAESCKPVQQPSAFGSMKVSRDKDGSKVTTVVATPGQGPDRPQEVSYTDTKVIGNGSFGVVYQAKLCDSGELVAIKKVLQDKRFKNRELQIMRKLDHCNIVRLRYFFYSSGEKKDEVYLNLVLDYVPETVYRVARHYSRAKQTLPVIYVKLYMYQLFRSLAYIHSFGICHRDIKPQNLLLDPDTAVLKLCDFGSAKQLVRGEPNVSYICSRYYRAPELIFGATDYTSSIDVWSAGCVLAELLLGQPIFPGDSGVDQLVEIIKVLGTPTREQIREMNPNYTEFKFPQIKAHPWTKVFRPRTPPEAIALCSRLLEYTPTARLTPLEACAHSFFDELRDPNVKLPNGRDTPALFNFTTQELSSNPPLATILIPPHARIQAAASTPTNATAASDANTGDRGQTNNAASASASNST
T1 sequence (O15197 32-1021): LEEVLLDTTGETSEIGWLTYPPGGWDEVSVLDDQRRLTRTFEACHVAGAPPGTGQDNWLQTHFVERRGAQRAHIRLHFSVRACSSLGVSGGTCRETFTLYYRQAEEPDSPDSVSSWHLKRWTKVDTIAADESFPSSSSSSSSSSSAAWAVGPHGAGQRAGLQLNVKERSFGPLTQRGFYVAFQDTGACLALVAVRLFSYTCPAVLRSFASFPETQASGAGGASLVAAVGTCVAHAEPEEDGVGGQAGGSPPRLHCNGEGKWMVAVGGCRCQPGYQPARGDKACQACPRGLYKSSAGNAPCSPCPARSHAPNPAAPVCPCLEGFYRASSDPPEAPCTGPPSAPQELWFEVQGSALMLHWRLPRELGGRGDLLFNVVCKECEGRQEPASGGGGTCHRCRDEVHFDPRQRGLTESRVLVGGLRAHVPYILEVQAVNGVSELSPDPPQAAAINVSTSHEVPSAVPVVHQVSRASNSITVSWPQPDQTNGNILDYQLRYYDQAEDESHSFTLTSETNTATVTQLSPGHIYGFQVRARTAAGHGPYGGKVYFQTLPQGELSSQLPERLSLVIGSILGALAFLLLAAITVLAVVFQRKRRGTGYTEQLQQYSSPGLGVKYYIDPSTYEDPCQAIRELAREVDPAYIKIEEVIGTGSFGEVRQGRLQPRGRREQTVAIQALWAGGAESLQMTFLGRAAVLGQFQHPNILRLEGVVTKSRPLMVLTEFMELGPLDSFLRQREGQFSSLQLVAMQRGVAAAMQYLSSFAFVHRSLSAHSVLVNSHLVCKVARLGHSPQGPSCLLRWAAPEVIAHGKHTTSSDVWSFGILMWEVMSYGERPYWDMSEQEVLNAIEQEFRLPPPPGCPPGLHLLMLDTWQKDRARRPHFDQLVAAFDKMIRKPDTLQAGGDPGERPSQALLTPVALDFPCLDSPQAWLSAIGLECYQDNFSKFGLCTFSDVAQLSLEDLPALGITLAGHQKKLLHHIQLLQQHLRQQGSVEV

As a reminder, the inhibition is the change of the read-out against control, counted positive when it falls. A lower inhibition goes with a weak effect. For the compound `CCc1cc(O)c(F)cc1-c1cc(F)c2c(-c3nc4c([nH]3)CCN(C(=O)CN3CCOCC3)C4)n[nH]c2c1` [Compound 1, 1-(2-(6-(2-ethyl-5-fluoro-4-hydroxyphenyl)-4-fluoro-1H-indazol-3-yl)-1,4,6,7-tetrahydro-5H-imidazo[4,5-c]pyridin-5-yl)-2-morpholinoethan-1-one], the inhibition at 1 µM was determined as 88% against EPHB6, 31% against GSK3B and 74% against CDK7. The IC50 is around 20 nM in assay [1] and around 79.4 nM in assay [2].
